From patent US20250134869A1, “Pyrrolo[2,3-d]pyrimidinyl, Pyrrolo[2,3-b]pyrazinyl and Pyrrolo[2,3-d]pyridinyl Acryla-mides” (Pfizer Inc, priority 2021, published 2025)
pIC50: −log10 of the molar value. Where two headings read alike, the source gives them in different places.

Biological target: JAK3 enzyme (Homo sapiens (Human), UniProt P52333)
Test: JAK Caliper Enzyme Assay at 4 μM or 1 mM ATP
Assay type: biochemical
[1] = read-out: JAK3 (4 μM ATP) IC50, 4 μM ATP
[2] = read-out: JAK3 (1 mM ATP) IC50, 1 mM ATP

Sequence of JAK3 enzyme (P52333 whole entry, species assumed): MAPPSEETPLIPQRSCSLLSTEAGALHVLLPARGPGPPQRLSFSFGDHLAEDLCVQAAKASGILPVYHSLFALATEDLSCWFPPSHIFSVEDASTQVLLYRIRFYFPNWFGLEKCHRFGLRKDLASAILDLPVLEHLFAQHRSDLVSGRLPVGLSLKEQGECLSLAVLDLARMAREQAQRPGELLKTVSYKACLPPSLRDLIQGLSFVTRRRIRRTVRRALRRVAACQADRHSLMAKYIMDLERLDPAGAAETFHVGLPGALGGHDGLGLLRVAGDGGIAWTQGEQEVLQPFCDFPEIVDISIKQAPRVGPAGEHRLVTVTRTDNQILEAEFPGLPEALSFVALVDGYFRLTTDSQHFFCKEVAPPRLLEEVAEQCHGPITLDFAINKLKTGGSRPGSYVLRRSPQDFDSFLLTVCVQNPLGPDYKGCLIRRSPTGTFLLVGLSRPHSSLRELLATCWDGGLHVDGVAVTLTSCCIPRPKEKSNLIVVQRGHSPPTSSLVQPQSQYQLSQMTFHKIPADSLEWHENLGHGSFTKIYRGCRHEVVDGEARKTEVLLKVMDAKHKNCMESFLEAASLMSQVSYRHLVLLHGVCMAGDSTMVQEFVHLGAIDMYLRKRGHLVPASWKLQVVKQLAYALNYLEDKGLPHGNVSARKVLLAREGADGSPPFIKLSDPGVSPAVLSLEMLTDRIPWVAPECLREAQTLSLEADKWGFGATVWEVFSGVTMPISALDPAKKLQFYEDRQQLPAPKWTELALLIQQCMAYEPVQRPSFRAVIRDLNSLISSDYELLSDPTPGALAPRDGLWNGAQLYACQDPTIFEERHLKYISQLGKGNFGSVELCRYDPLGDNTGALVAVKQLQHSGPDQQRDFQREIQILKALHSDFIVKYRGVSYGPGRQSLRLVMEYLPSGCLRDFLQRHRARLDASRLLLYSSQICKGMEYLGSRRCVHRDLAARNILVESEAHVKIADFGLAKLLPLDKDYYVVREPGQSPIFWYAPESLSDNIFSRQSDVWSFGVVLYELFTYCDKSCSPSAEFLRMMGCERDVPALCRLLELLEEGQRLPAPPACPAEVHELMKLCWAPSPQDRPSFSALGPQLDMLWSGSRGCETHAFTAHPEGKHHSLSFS

Structure (SMILES)	pIC50 [1]	pIC50 [2]
C=CC(=O)N1CCC(Oc2cnc3[nH]cc(-c4ccnc(F)c4)c3n2)CC1 [Example 222, 1-(4-{[7-(2-fluoropyridin-4-yl)-5H-pyrrolo[2,3-b]pyrazin-2-yl]oxy}piperidin-1-yl)prop-2-en-1-one]	8.96	6.90
C=CC(=O)N1CCC(Nc2cnc3[nH]cc(C(=O)NCCCC#N)c3n2)CC1 [Example 242, 2-[(1-acryloylpiperidin-4-yl)amino]-N-(3-cyanopropyl)-5H-pyrrolo[2,3-b]pyrazine-7-carboxamide]	10.00	7.97
C=CC(=O)N1CCC(Nc2cnc3[nH]cc(-c4cncc(F)c4)c3n2)CC1 [Example 212, 1-(4-{[7-(5-fluoropyridin-3-yl)-5H-pyrrolo[2,3-b]pyrazin-2-yl]amino}piperidin-1-yl)prop-2-en-1-one]	9.52	7.80
C=CC(=O)N1CCN(c2cnc3[nH]cc(C(=O)NC(C)C)c3n2)[C@@H](CC)C1 [Example 325, 2-[(2S)-4-acryloyl-2-ethylpiperazin-1-yl]-N-(propan-2-yl)-5H-pyrrolo[2,3-b]pyrazine-7-carboxamide]	8.30	6.32
C=CC(=O)N1CCC(Nc2cnc3[nH]cc(C(=O)NC(C)C4CC4)c3n2)CC1 (stereo not shown) [Example 288, 2-[(1-acryloylpiperidin-4-yl)amino]-N-(1-cyclopropylethyl)-5H-pyrrolo[2,3-b]pyrazine-7-carboxamide]	9.70	8.11
C=CC(=O)N1CCC(Nc2cnc3[nH]cc(C(=O)NCCC(F)(F)F)c3n2)CC1 [Example 246, 2-[(1-acryloylpiperidin-4-yl)amino]-N-(3,3,3-trifluoropropyl)-5H-pyrrolo[2,3-b]pyrazine-7-carboxamide]	9.52	8.19
C=CC(=O)N1CC2(C1)CN(c1cnc3[nH]cc(C(=O)NC(C)C)c3n1)C2 [Example 310, 2-(6-acryloyl-2,6-diazaspiro[3.3]hept-2-yl)-N-(propan-2-yl)-5H-pyrrolo[2,3-b]pyrazine-7-carboxamide]	6.93	< 5.00
C=CC(=O)N1CC[C@@H]2CN(c3ncnc4[nH]ccc34)[C@@H]2C1 [Example 131, 1-[(1S,6R)-8-(7H-Pyrrolo[2,3-d]pyrimidin-4-yl)-3,8-diazabicyclo[4.2.0]oct-3-yl]prop-2-en-1-one]	6.01	
C=CC(=O)N1CCC(Nc2cnc3[nH]cc(C(=O)NCCCC(F)(F)F)c3n2)CC1 [Example 240, 2-[(1-acryloylpiperidin-4-yl)amino]-N-(4,4,4-trifluorobutyl)-5H-pyrrolo[2,3-b]pyrazine-7-carboxamide]	10.00	8.04
C=CC(=O)N1CCC(Nc2cnc3[nH]cc(C(=O)NCC4(O)CCC4)c3n2)CC1 [Example 231, 2-[(1-acryloylpiperidin-4-yl)amino]-N-[(1-hydroxycyclobutyl)methyl]-5H-pyrrolo[2,3-b]pyrazine-7-carboxamide]	9.22	7.28
C=CC(=O)N1CCC[C@@H](Nc2ncnc3[nH]cc(CC(C)C)c23)C1 [Example 39, 1-[(3R)-3-{[5-(2-methylpropyl)-7H-pyrrolo[2,3-d]pyrimidin-4-yl]amino}piperidin-1-yl]prop-2-en-1-one]	< 5.00	
C=CC(=O)N1C[C@@H](C#N)C[C@@H](Nc2ncnc3[nH]ccc23)C1 [Example 58, (3S,5R)-5-((7H-pyrrolo[2,3-d]pyrimidin-4-yl)amino)-1-acryloylpiperidine-3-carbonitrile]	8.60	6.44
C=CC(=O)N1CCC(Nc2cnc3[nH]cc(-c4ccnc(C)c4)c3n2)CC1 [Example 201, 1-(4-{[7-(2-methylpyridin-4-yl)-5H-pyrrolo[2,3-b]pyrazin-2-yl]amino}piperidin-1-yl)prop-2-en-1-one]	9.30	7.55
C=CC(=O)N1CCC[C@@H](Nc2ncnc3[nH]cc(-c4cncc(F)c4)c23)C1 [Example 23, 1-[(3R)-3-{[5-(5-fluoropyridin-3-yl)-7H-pyrrolo[2,3-d]pyrimidin-4-yl]amino}piperidin-1-yl]prop-2-en-1-one]	8.89	7.06
CN(C)C/C=C/C(=O)N1CCC[C@H](Nc2ncnc3[nH]ccc23)C1 [Example 106, (2E)-4-(dimethylamino)-1-[(3S)-3-(7H-pyrrolo[2,3-d]pyrimidin-4-ylamino)piperidin-1-yl]but-2-en-1-one]	7.31	
C=CC(=O)N1C[C@H](Nc2ncnc3[nH]ccc23)[C@H]2CC[C@@H]1C2 [Example 127, 1-((1R,4R,5S)-4-(7H-pyrrolo[2,3-d]pyrimidin-4-ylamino)-2-azabicyclo[3.2.1]octan-2-yl)prop-2-en-1-one]	6.72	< 5.00
C=CC(=O)N1CCN(c2cnc3[nH]cc(C(=O)NC(C)C)c3n2)[C@H](CC)C1 [Example 321, 2-[(2R)-4-acryloyl-2-ethylpiperazin-1-yl]-N-(propan-2-yl)-5H-pyrrolo[2,3-b]pyrazine-7-carboxamide]	9.05	6.84

Structure (SMILES)	pIC50 [1]	pIC50 [2]
C=CC(=O)N1C[C@H](Nc2ncnc3[nH]ccc23)CC[C@H]1CC [Example 124, 1-[(2R,5R)-2-Ethyl-5-(7H-pyrrolo[2,3-d]pyrimidin-4-ylamino)piperidin-1-yl]prop-2-en-1-one]	6.58	< 5.00
C=CC(=O)N1CC[C@@H](F)[C@@H](Nc2ncnc3[nH]ccc23)C1 [Example 54, 1-((3S,4R)-3-((7H-Pyrrolo[2,3-d]pyrimidin-4-yl)amino)-4-fluoropiperidin-1-yl)prop-2-en-1-one]	8.77	6.72
C#Cc1c[nH]c2ncnc(N3CC[C@H]4CCN(C(=O)C=C)C[C@H]43)c12 [Example 48, 1-[(3aS,7aS)-1-(5-ethynyl-7H-pyrrolo[2,3-d]pyrimidin-4-yl)octahydro-6H-pyrrolo[2,3-c]pyridin-6-yl]prop-2-en-1-one]	9.10	7.00
C=CC(=O)N1CC(Nc2cnc3[nH]ccc3n2)C1 [Example 337, 1-(3-((5H-Pyrrolo[2,3-b]pyrazin-2-yl)amino)azetidin-1-yl)prop-2-en-1-one]	8.96	7.02
C=CC(=O)N1CCC(Nc2cnc3[nH]cc(C(=O)NCC4(O)CCCC(F)(F)C4)c3n2)CC1 (stereo not shown) [Example 249, 2-[(1-acryloylpiperidin-4-yl)amino]-N-[(3,3-difluoro-1-hydroxycyclohexyl)methyl]-5H-pyrrolo[2,3-b]pyrazine-7-carboxamide]	9.22	7.33
C=CC(=O)N1CCC(Nc2cnc3[nH]cc(-c4cnc(OC)nc4)c3n2)CC1 [Example 210, 1-(4-{[7-(2-methoxypyrimidin-5-yl)-5H-pyrrolo[2,3-b]pyrazin-2-yl]amino}piperidin-1-yl)prop-2-en-1-one]	9.40	7.34
C=CC(=O)N1CCC[C@@H](Nc2ncnc3[nH]cc(C#N)c23)C1 [Example 45, 4-{[(3R)-1-acryloylpiperidin-3-yl]amino}-7H-pyrrolo[2,3-d]pyrimidine-5-carbonitrile]	9.00	6.77
O=C(/C=C/c1c[nH]cn1)N1CCC[C@@H](Nc2ncnc3[nH]ccc23)C1 [Example 107, (2E)-3-(1H-imidazol-4-yl)-1-[(3R)-3-(7H-pyrrolo[2,3-d]pyrimidin-4-ylamino)piperidin-1-yl]prop-2-en-1-one]	5.94	
C=CC(=O)N1C[C@H](Nc2ncnc3[nH]cc(C#N)c23)CC[C@@H]1C [Example 163, 4-{[(3R,6S)-1-Acryloyl-6-methylpiperidin-3-yl]amino}-7H-pyrrolo[2,3-d]pyrimidine-5-carbonitrile]	9.22	7.33
C=CC(=O)N1CCN(c2cnc3[nH]cc(C(=O)NC(C)C)c3n2)C2(CC2)C1 [Example 313, 2-(7-acryloyl-4,7-diazaspiro[2.5]oct-4-yl)-N-(propan-2-yl)-5H-pyrrolo[2,3-b]pyrazine-7-carboxamide]	8.85	6.74
C=CC(=O)N1CCC[C@@H](Nc2ncnc3[nH]cc(-c4cncc(OC)c4)c23)C1 [Example 24, 1-[(3R)-3-{[5-(5-methoxypyridin-3-yl)-7H-pyrrolo[2,3-d]pyrimidin-4-yl]amino}piperidin-1-yl]prop-2-en-1-one]	8.92	7.01
C=CC(=O)N1CCN(c2cnc3[nH]cc(C(=O)NC(C)C)c3n2)[C@@H](C(C)C)C1 [Example 323, 2-[(2S)-4-acryloyl-2-(propan-2-yl)piperazin-1-yl]-N-(propan-2-yl)-5H-pyrrolo[2,3-b]pyrazine-7-carboxamide]	7.92	6.05
O=C(/C=C/CF)N1CC[C@@H]2CCN(c3ncnc4[nH]ccc34)[C@@H]2C1 [Example 87, (2E)-4-fluoro-1-[(3aS,7aS)-1-(7H-pyrrolo[2,3-d]pyrimidin-4-yl)octahydro-6H-pyrrolo[2,3-c]pyrdin-6-yl]but-2-en-1-one]	6.86	< 5.00
C=CC(=O)N1C[C@@H](Nc2ncnc3[nH]ccc23)CC[C@@H]1CC [Example 125, 1-[(2S,5S)-2-Ethyl-5-(7H-pyrrolo[2,3-d]pyrimidin-4-ylamino)piperidin-1-yl]prop-2-en-1-one]	5.85	< 5.00
C=CC(=O)N1CCC(Nc2cnc3[nH]cc(C(=O)N[C@@H]4CCC[C@@H]4F)c3n2)CC1 [Example 251, 2-[(1-acryloylpiperidin-4-yl)amino]-N-[(1R,2S)-2-fluorocyclopentyl]-5H-pyrrolo[2,3-b]pyrazine-7-carboxamide]	9.70	8.09
C=CC(=O)N1CCC(Nc2cnc3[nH]cc(-c4ccccc4)c3n2)CC1 [Example 209, 1-{4-[(7-phenyl-5H-pyrrolo[2,3-b]pyrazin-2-yl)amino]piperidin-1-yl}prop-2-en-1-one]	9.70	7.84
C=CC(=O)N1CCC(Nc2cnc3[nH]cc(C(=O)N4CCCC4)c3n2)CC1 [Example 287, 1-(4-{[7-(pyrrolidin-1-ylcarbonyl)-5H-pyrrolo[2,3-b]pyrazin-2-yl]amino}piperidin-1-yl)prop-2-en-1-one]	8.38	6.46
